The data set concerns Yap1 mRNA. Put plainly: Antisense inhibition of human Yap1 in A-431 cells by cEt gapmers, single dose (Example 2, RTS4814). The format is cell-based. In outline:
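Yap1 mRNA levels, by real-time RT-PCR (RTS4814) and corrected for total RNA via RIBOGREEN, are given as percent of untreated cells. Gapmers (16-mer, cEt wings, phosphorothioate, 5-methylC) were delivered without transfection at 2,000 nM to A-431 cells for about 48 hours.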

Setting [1] is: Table 25, Yap1 mRNA as percent of untreated control, 3-10-3 cEt gapmers targeting SEQ ID NO.: 1, and 2.
Where [2] appears, read: A-431 cells, 5,000 cells per well, free uptake, 2,000 nM modified oligonucleotide, approx. 48 hours, RTS4814, normalized to RIBOGREEN, Table 4, asterisk (*) = targets amplicon region of primer probe set.
Setting [3] is: Table 33, Yap1 mRNA, percent of untreated control, 3-10-3 cEt gapmers targeting SEQ ID NO.: 1, and 2.
Setting [4] is: Table 24, Yap1 mRNA as percent of untreated control, 3-10-3 cEt gapmers targeting SEQ ID NO.: 1, and 2.
Where [5] appears, read: Yap1 mRNA as percent of untreated control, A-431 cells, 3-10-3 cEt gapmers targeting SEQ ID NO.: 1, and 2, Table 31.
[6] abbreviates: Table 19, A-431 cells, 5,000 cells per well, free uptake, 2,000 nM modified oligonucleotide, approx. 48 hours, RTS4814, normalized to RIBOGREEN, Yap1 mRNA as percent of untreated control.
Where [7] appears, read: Table 5, A-431 cells, 5,000 cells per well, free uptake, 2,000 nM modified oligonucleotide, approx. 48 hours, RTS4814, normalized to RIBOGREEN, Yap1 mRNA relative to untreated control cells.
The mark [8] stands for this setting: Table 22, Yap1 mRNA as percent of untreated control, 3-10-3 cEt gapmers, single dose.
The mark [9] stands for this setting: Table 20, Yap1 mRNA, percent of untreated control, 3-10-3 cEt gapmers targeting SEQ ID NO.: 1 and 2.
[10] abbreviates: Yap1 mRNA as percent of untreated control, A-431 cells, 3-10-3 cEt gapmers targeting SEQ ID NO.: 1, and 2, Table 30.
Where [11] appears, read: Table 21, Yap1 mRNA, percent of untreated control, 3-10-3 cEt gapmers targeting SEQ ID NO.: 1 and 2.

Strand notation (5' to 3'): a small letter for the sugar, then the base; units joined by * are phosphorothioate-linked, units joined directly phosphodiester-linked; [ ] holds rarer units or linkages, { } end groups; capitals alone tell only the bases. k = constrained ethyl (cEt); [5mC] = 5-methylcytosine; d = 2'-deoxy (DNA)

We go through 37 substances from US11214803B2, “Modulators of YAP1 expression” (Ionis Pharmaceuticals, Inc., priority 2019, dated 2022).

With “1075147 (antisense kT*kA*kT*dA*dA*dA*d[5mC]*d[5mC]*dT*dT*dA*d[5mC]*dA*kG*kT*kA) [Compound 1075147]”, the “YAP1 (% UTC)” value under setting [1] is recorded as 57 % UTC. In the case of “716403 (k[5mC]*k[5mC]*kG*dG*dG*dA*dG*dA*dA*dG*dA*d[5mC]*dA*k[5mC]*kT*kG; antisense) [Compound 716403]”, the “YAP1 (% UTC)” value under setting [2] was 110 % UTC.

In the case of “1076531 (kA*k[5mC]*kT*dA*dT*dA*dA*dA*dG*dG*dG*dT*dT*kT*kA*kG; antisense) [compound 1076531]”, the “YAP1 (% UTC)” value under setting [3] came out at 66 % UTC. With “1075978 (kA*kG*kA*dT*dT*dA*dA*dA*dA*dG*dT*d[5mC]*dG*kG*kG*k[5mC]; antisense) [Compound 1075978]”, the “YAP1 (% UTC)” value under setting [4] is 11 % UTC. As for “1074538 (antisense kA*kT*k[5mC]*d[5mC]*dA*d[5mC]*dA*dG*dT*dA*dA*dT*dA*kG*k[5mC]*kT) [Compound 1074538]”, under setting [4], the “YAP1 (% UTC)” value was 31 % UTC.

In the case of “1074449 (k[5mC]*kT*kA*dA*dT*dG*dA*dT*dA*dG*d[5mC]*dA*d[5mC]*kT*kA*kG; antisense) [compound 1074449]”, the “YAP1 (% UTC)” value under setting [5] turned out to be 36 % UTC. On to “1074181 (antisense k[5mC]*k[5mC]*k[5mC]*dG*dG*dG*dA*dT*d[5mC]*d[5mC]*dA*dT*dG*kG*k[5mC]*kT) [Compound 1074181]”, for which the “YAP1 (% UTC)” value under setting [6] is 107 % UTC. For “716569 (k[5mC]*kT*k[5mC]*d[5mC]*dT*dT*dA*dA*d[5mC]*d[5mC]*d[5mC]*dG*dG*kG*kT*kT; antisense) [Compound 716569]”, under setting [7], the “YAP1 (% UTC)” value is reported as 115 % UTC. Turning to “1075594 (kT*kG*kA*dG*dA*dA*dT*dA*dT*dT*d[5mC]*d[5mC]*dT*k[5mC]*k[5mC]*k[5mC]; antisense) [Compound 1075594]”, the “YAP1 (% UTC)” value under setting [4] turned out to be 64 % UTC.

On to “1075665 (antisense kA*kT*kT*dT*dA*dG*dT*dT*dG*dT*dG*d[5mC]*dA*k[5mC]*kA*kG) [compound 1075665]”, for which the “YAP1 (% UTC)” value under setting [5] is 87 % UTC. For “1074667 (antisense k[5mC]*k[5mC]*k[5mC]*dA*dA*d[5mC]*dA*dA*d[5mC]*dA*dT*dG*d[5mC]*kT*kA*kT) [Compound 1074667]”, under setting [1], the “YAP1 (% UTC)” value is on record as 15 % UTC. Regarding “1075953 (kA*kA*k[5mC]*d[5mC]*dT*dA*dT*dA*dT*dA*d[5mC]*d[5mC]*dT*kG*k[5mC]*kT; antisense) [compound 1075953]”, under setting [5], the “YAP1 (% UTC)” value was found to be 36 % UTC. Regarding “1074867 (kT*kA*kA*d[5mC]*dA*dT*dA*dT*dG*dA*dG*d[5mC]*dA*kT*kG*k[5mC]; antisense) [compound 1074867]”, the “YAP1 (% UTC)” value under setting [3] came out at 40 % UTC. “1076296 (kT*kA*kT*dA*dA*dA*dG*dA*d[5mC]*d[5mC]*d[5mC]*dA*dA*kT*kG*k[5mC]; antisense) [Compound 1076296]”: the “YAP1 (% UTC)” value under setting [8] is 68 % UTC.

As to “1074310 (antisense kT*k[5mC]*k[5mC]*dG*d[5mC]*dA*dT*dT*dG*d[5mC]*d[5mC]*dT*dG*kT*kG*kG) [Compound 1074310]”, the “YAP1 (% UTC)” value under setting [9] turned out to be 100 % UTC. Take “716521 (antisense k[5mC]*kA*kG*d[5mC]*dA*d[5mC]*dG*dG*dT*dG*dT*dA*dA*kG*kA*k[5mC]) [Compound 716521]”: under setting [7], the “YAP1 (% UTC)” value stood at 79 % UTC. Take “1076339 (antisense k[5mC]*kA*kG*d[5mC]*dA*dA*dT*dA*d[5mC]*dT*dG*dT*dG*kG*kG*k[5mC]) [compound 1076339]”: the “YAP1 (% UTC)” value under setting [3] was 13 % UTC.

Consider “1074834 (kT*kT*kG*d[5mC]*dG*dA*dG*dG*dA*dT*dA*dA*dA*kA*kT*k[5mC]; antisense) [compound 1074834]”, for which the “YAP1 (% UTC)” value (Table 32, Yap1 mRNA, percent of untreated control, 3-10-3 cEt gapmers targeting SEQ ID NO.: 1, and 2) is on record as 14 % UTC. Turning to “1075312 (antisense kT*kT*kA*dA*dT*dT*dG*dA*dA*d[5mC]*dT*d[5mC]*dA*kG*kG*kG) [compound 1075312]”, under setting [10], the “YAP1 (% UTC)” value came to 37 % UTC.

As to “1074569 (antisense kT*kG*kA*dA*d[5mC]*d[5mC]*dT*dA*d[5mC]*dT*d[5mC]*dA*d[5mC]*kT*kG*kA) [Compound 1074569]”, the “YAP1 (% UTC)” value (Table 23, Yap1 mRNA as percent of untreated control, 3-10-3 cEt gapmers, single dose) was found to be 8 % UTC.

“1074342 (antisense k[5mC]*kA*kT*d[5mC]*d[5mC]*d[5mC]*dG*dG*dG*dA*dG*dA*dA*kG*kA*k[5mC]) [Compound 1074342]”: the “YAP1 (% UTC)” value under setting [9] was determined as 56 % UTC. Consider “1074503 (k[5mC]*kA*kA*d[5mC]*dT*dA*d[5mC]*dA*dA*dT*dA*dA*d[5mC]*k[5mC]*kA*kT; antisense) [Compound 1074503]”, for which the “YAP1 (% UTC)” value under setting [11] is recorded as 29 % UTC. Take “1075562 (kG*kT*kA*dT*dT*dT*dA*dT*dG*dG*d[5mC]*dA*dA*k[5mC]*kA*kT; antisense) [Compound 1075562]”: the “YAP1 (% UTC)” value under setting [4] worked out at 15 % UTC. As to “716410 (kG*kT*kA*dT*d[5mC]*dA*d[5mC]*d[5mC]*dT*dG*dT*dA*dT*k[5mC]*k[5mC]*kA; antisense) [Compound 716410]”, the “YAP1 (% UTC)” value under setting [7] came to 52 % UTC. In the case of “1074163 (k[5mC]*kA*kG*dG*d[5mC]*dG*dA*dG*d[5mC]*dG*dA*dG*dG*kG*k[5mC]*kT; antisense) [compound 1074163]”, under setting [3], the “YAP1 (% UTC)” value was 118 % UTC. Regarding “1076517 (antisense k[5mC]*kA*kT*dA*dA*dT*dA*dA*dG*dA*d[5mC]*dT*dA*kA*kA*k[5mC]) [Compound 1076517]”, the “YAP1 (% UTC)” value under setting [6] is recorded as 102 % UTC. The same measure, in the same setting: the figure for “1074533 (antisense kT*kA*kG*dA*dA*d[5mC]*dA*d[5mC]*dT*dA*dA*dA*d[5mC]*kT*kA*k[5mC]) [Compound 1074533]” is 80 % UTC. Turning to “1074375 (antisense kG*k[5mC]*kA*dG*dG*dG*dT*dG*d[5mC]*dT*dT*dT*dG*kG*kT*kT) [Compound 1074375]”, under setting [11], the “YAP1 (% UTC)” value amounted to 33 % UTC.

As for “1076293 (kG*k[5mC]*kT*dT*dA*dT*dT*dA*dT*dT*dG*dA*dG*kT*kT*kA; antisense) [Compound 1076293]”, the “YAP1 (% UTC)” value under setting [6] was 3 % UTC. “1075526 (kT*kT*kT*dA*dA*dT*dT*dA*dA*dG*dG*dG*d[5mC]*k[5mC]*k[5mC]*kA; antisense) [Compound 1075526]”: the “YAP1 (% UTC)” value under setting [9] came to 110 % UTC.

On to “1074705 (antisense kG*k[5mC]*kA*d[5mC]*dG*dG*dT*dG*dT*dA*dA*dG*dA*k[5mC]*kA*kA) [compound 1074705]”, for which, under setting [5], the “YAP1 (% UTC)” value was 20 % UTC. As to “1075827 (kA*kT*kA*d[5mC]*dT*dA*dT*dA*d[5mC]*d[5mC]*dT*dA*dA*kG*kG*kA; antisense) [compound 1075827]”, under setting [3], the “YAP1 (% UTC)” value is on record as 60 % UTC. Regarding “716529 (antisense k[5mC]*kA*kA*dA*d[5mC]*dT*d[5mC]*dA*dA*dA*dA*dA*dG*kG*kG*kA) [Compound 716529]”, the “YAP1 (% UTC)” value under setting [2] is given as 61 % UTC. On to “1075690 (k[5mC]*kG*kT*dT*dA*dA*d[5mC]*dA*dA*d[5mC]*dT*dA*dT*kA*k[5mC]*kA; antisense) [Compound 1075690]”, for which, under setting [4], the “YAP1 (% UTC)” value is 33 % UTC.

On to “1076552 (antisense kA*kT*kG*dT*dA*dT*dA*dA*dA*dT*dA*d[5mC]*d[5mC]*kA*kG*kG) [Compound 1076552]”, for which the “YAP1 (% UTC)” value under setting [8] is 7 % UTC. Consider “716471 (k[5mC]*k[5mC]*kT*dA*d[5mC]*dT*d[5mC]*dA*d[5mC]*dT*dG*dA*dA*kT*kT*k[5mC]; antisense) [Compound 716471]”, for which, under “Table 6, A-431 cells, 5,000 cells per well, free uptake, 2,000 nM modified oligonucleotide, approx. 48 hours, RTS4814, normalized to RIBOGREEN, Yap1 mRNA relative to untreated control cells”, the “YAP1 (% UTC)” value was determined as 48 % UTC.

For the substance “1076336 (antisense k[5mC]*kA*kT*dT*dA*d[5mC]*d[5mC]*dA*d[5mC]*d[5mC]*dT*dA*dT*kA*kA*kG) [compound 1076336]”, the “YAP1 (% UTC)” value under setting [10] was found to be 31 % UTC.
